# According to patent US10422791B2, “Haptens and conjugates derived from pyocyanin, antibodies thereof, and immunochemical method for detecting infections caused by Pseudomonas aeruginosa” (priority 2013, dated 2019):
# Experiments:
# As230 antiserum = assay: Cross-reactivity determinations in the indirect competitive ELISA As230/PC1-BSA (AE); type: binding, New Zealand white rabbits; settings: for % RC (cross-reactivity): (IC50 1-hydroxyphenazine/IC50 phenazine compound)x100; for IC50: calibration curves in PBST, coating antigen PC1-BSA (AE), antiserum As230
# Description: The MALDI-TOF-MS mass spectrometer (mass spectrometer with laser assisted by ionization/desorption matrix with flight time) which it uses to characterize the conjugates of protein was a Bruker 200-Hz SmartBeam (Bruker-Daltonics, Leipzig, Germany). The detection was performed in the positive ion mode, ionized with a laser power set at 70% of the maximum laser intensity of the instrument at a frequency of 10-100 Hz. The pH and the conductivity of all the buffers and solutions was measured with a 540 GLP phMeter and a LF 340 conductivity meter, respectively (WTW, Weilheim, Germany). The polystyrene microtiter plates were from Nunc (Maxisorp, Roskilde, Denmark). The washing steps were carried out using a microplate washer (ELx405 HT (BioTek, Vinooski, Vt., USA)). The absorbencies were read in a SpectramaxPlus (Molecular Devices, Sunnyvale, Calif.) in a wavelength mode of 450 nm. The competition curves were analysed with a four-parameter equation using the SoftmaxPro v4.7 (Molecular Devices) and GraphPad Prism v 4 (GraphPad Software Inc, San Diego, Calif.) software. The standard curve was adjusted to a logistical equation of four parameters according to the formula y=(A−B/[1−(x/C)D])+B, where A is the maximum absorbance, B is the minimum absorbance, C is the concentration which produces 50% of the difference between the maximum and minimum absorbance (or IC50), and D is the gradient in the point of inflection of the sigmoidal curve. Unless indicated otherwise, the data shown correspond to the mean of at least two replicates.
# The polyclonal antiserums As230, As231 and As232 were obtained by the immunization of New Zealand white rabbits (female) with weights around 1-2 kg with PC1-HCH (MA) following a protocol already described by Ballesteros et al. (Analytica Chimica Acta 1997, 347, 139). The evolution of the titers of antibodies was assessed by measuring the binding of serial solutions of each antiserum to microtiter plates coated with the homologous BSA conjugate. Once acceptable titers of antibodies are obtained, the animals were exsanguinated and the blood was collected in Vacutainer tubes provided with serum separation gel. The antiserums were obtained by centrifugation and were stored at −80° C. in the presence of 0.02% NaN3.
# The microtiter plates were coated with PC1-BSA (AE) (0.125 μg/ml with coating buffer 100 μL/well) during 4 h at 25° C. with adhesive sealants. Then, the plates were washed four times with PBST (300 μL/well) before adding the standards (1-hydroxyphenazine or another type of related analytes, at different concentrations from 1000 nM to 0 nM in PBhST), and the samples at different concentrations (50 μl/well), followed by the As230 antiserum solution (1/8000 dilution in PBhST, 50 μl/well). After 30 min at ambient temperature, the plates were washed a further nine times with PBST and the anti-IgG-HRP solution was added (1/6000 in PBST, 100 μl/well). After 30 min of incubation at ambient temperature, the microplates were again washed four times with PBST and the substrate solution was added (100 μl/well) and the enzyme reaction was stopped after 30 min at ambient temperature by H2SO4 4 N (50 μl/well). The absorbencies were measured at 450 nm. The standard curve was adjusted to a logistical equation of four parameters according to the formula y=(A−B/[1−(x/C) D])+B, where A is the maximum absorbance, B is the minimum absorbance, C is the concentration that produces 50% of the difference between the maximum absorbance and minimum absorbance of the absorbance (or IC50), and D is gradient in the point of inflection of the sigmoidal curve. The limit of detection (LOD) is defined as the concentration which gives 90% response of the maximum absorbance (IC90) (see FIG. 1 and table 1).
# Stock solutions were prepared of different compounds structurally related with pyocyanin and 1-hydroxyphenazine (10 mM in dimethyl sulfoxide) and they were stored at 4° C. […]
# [1] = Conversion of pyocyanin into 1-hydroxyphenazine by NaOH, controlled by HPLC-UV; type: physicochemical; settings: 1 M NaOH, 20 min at a.t., phenazine as internal standard
# Description: A 2M NaOH solution (250 μL) was added to a vial containing pyocyanin (10 mM, 25 μL) in 10 mM PBS (85 μL), previously spiked with phenazine (500 μM, 140 μL). The progress of the reaction was monitored by extracting aliquots (10 μL) from the reaction solution at various time intervals, diluting them with 250 mM PBS (90 μL) and adding 1 M HCl (10 μL) to neutralize the pH.
# Therefore, it was necessary to develop a simple method to convert pyocyanin in 1-hydroxyphenazine with a good yield. This could be achieved by treating pyocyanin solutions with 1 M NaOH during 20 min at a.t. […] As shown in FIG. 2 (bottom), a good correlation was observed (R^2=0.943) between the sample measurements and the spiked samples for the detection of pyocyanin once hydrolyzed.
smiles,measurement,setting,value
Oc1cccc2nc3ccccc3nc12 [1-hydroxyphenazine],% RC (cross-reactivity),As230 antiserum,100%
same,IC50,As230 antiserum,0.00062 µM
COS(=O)(=O)[O-].C[n+]1c2ccccc2nc2ccccc21 [Methyl 5-methylphenazine sulfate],% RC (cross-reactivity),As230 antiserum,0.4%
same,IC50,As230 antiserum,0.14 µM
O=C(O)c1ccc2nc3ccccc3nc2c1 [Phenazine-2-carboxylic acid],% RC (cross-reactivity),As230 antiserum,<0.1%
same,IC50,As230 antiserum,> 0.8 µM
c1ccc2nc3ccccc3nc2c1 [Phenazine],% RC (cross-reactivity),As230 antiserum,<0.1%
same,IC50,As230 antiserum,> 0.8 µM
"Cn1c2cccc(=O)c-2nc2ccccc21 [Pyocyanin, pyocyanin]",% RC (cross-reactivity),As230 antiserum,<0.1%
same,% RC (cross-reactivity),As230 antiserum; listed as pyocyanin,less than 0.1%
same,IC50,As230 antiserum,> 0.8 µM
same,conversion of pyocyanin in 1-hydroxyphenazine (hydrolysis of the methyl group),[1],quantitative
